How the values were obtained:
Type in all cases: in vivo
[1] = tested on: Cabbage Looper (Trichoplusia ni, TRIPNI); assay: Bioassays on Cabbage Looper (CL), 128-well diet tray assay; details: Trichoplusia ni; Cabbage Looper; rating class; read-out: CL
How it was run: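 Diet tray, 2nd instar, 1–5 larvae/well; 50 μg/cm^2 compound surface-applied (acetone:water 90:10), dried; 8 wells/treatment; 25° C, 14:10 L:D, 5–7 d; % mortality, mean of 8 wells.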

[2] = tested on: Yellow Fever Mosquito (Aedes aegypti, AEDSAE); details: Yellow Fever Mosquito; rating class
How it was run: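 Larvae ~1 day old, in liver powder/water; compound from 4000 ppm DMSO stock diluted with water/acetone (90:10); 6 reps; lidded, RT, 3 d; mortality scored per well, rated.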

[3] = tested on: Beet Armyworm (Spodoptera exigua, LAPHEG); assay: Bioassays on Beet Armyworm (BAW), 128-well diet tray assay; details: Spodoptera exigua; Beet Armyworm; rating class; read-out: BAW
How it was run: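 Mortality of second-instar larvae (1–5/well) on artificial diet treated with 50 μg/cm^2 compound, read after 5–7 days at 25° C.; values are means of eight wells.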

Row | Structure (SMILES) | pest or weed control at 50 µg/cm2 [1] | YFM [2] | pest or weed control at 50 µg/cm2 [3]
1 | O=C(Nc1ccc(F)c(NC(=O)C(F)(F)F)c1F)c1cc(NC(=O)[C@H]2[C@H](c3cc(Cl)c(Cl)c(Cl)c3)C2(Cl)Cl)cc(F)c1F [F1438, 5-((1R,3R)-2,2-Dichloro-3-(3,4,5-trichlorophenyl)cyclopropane-1-carboxamido)-N-(2,4-difluoro-3-(2,2,2-trifluoroacetamido)phenyl)-2,3-difluorobenzamide] | 50 to 100% | A (80–100) | 50 to 100%
2 | CC(=O)Nc1c(F)ccc(NC(=O)c2cc(NC(=O)[C@H]3[C@H](c4cc(Cl)cc(Cl)c4)C3(Cl)Cl)cc(F)c2F)c1F [F1439, N-(3-Acetamido-2,4-difluorophenyl)-5-((1R,3R)-2,2-dichloro-3-(3,5-dichlorophenyl)cyclopropane-1-carboxamido)-2,3-difluorobenzamide] | 50 to 100% | A (80–100) | 50 to 100%
3 | O=C(Nc1ccc(F)c(NC(=O)C(F)F)c1F)c1cc(NC(=O)[C@H]2[C@H](c3cc(Cl)cc(Cl)c3)C2(Cl)Cl)cc(F)c1F [F1440, 5-((1R,3R)-2,2-Dichloro-3-(3,5-dichlorophenyl)cyclopropane-1-carboxamido)-N-(3-(2,2-difluoroacetamido)-2,4-difluorophenyl)-2,3-difluorobenzamide] | 50 to 100% | A (80–100) | 50 to 100%
4 | O=C(Nc1ccc(F)c(NC(=O)C(F)(F)F)c1F)c1cc(NC(=O)[C@H]2[C@H](c3cc(Cl)cc(Cl)c3)C2(Cl)Cl)cc(F)c1F [F1441, 5-((1R,3R)-2,2-Dichloro-3-(3,5-dichlorophenyl)cyclopropane-1-carboxamido)-N-(2,4-difluoro-3-(2,2,2-trifluoroacetamido)phenyl)-2,3-difluorobenzamide] | 50 to 100% | A (80–100) | 50 to 100%
5 | CC(=O)Nc1c(F)ccc(NC(=O)c2cc(NC(=O)[C@H]3[C@H](c4ccc(Cl)c(Cl)c4)C3(Cl)Cl)cc(F)c2F)c1F [F1442, N-(3-Acetamido-2,4-difluorophenyl)-5-((1R,3R)-2,2-dichloro-3-(3,4-dichlorophenyl)cyclopropane-1-carboxamido)-2,3-difluorobenzamide] | 50 to 100% | A (80–100) | 50 to 100%
6 | O=C(Nc1ccc(F)c(NC(=O)C(F)F)c1F)c1cc(NC(=O)[C@H]2[C@H](c3ccc(Cl)c(Cl)c3)C2(Cl)Cl)cc(F)c1F [F1443, 5-((1R,3R)-2,2-Dichloro-3-(3,4-dichlorophenyl)cyclopropane-1-carboxamido)-N-(3-(2,2-difluoroacetamido)-2,4-difluorophenyl)-2,3-difluorobenzamide] | 50 to 100% | A (80–100) | 50 to 100%
7 | O=C(Nc1ccc(F)c(NC(=O)C(F)(F)F)c1F)c1cc(NC(=O)[C@H]2[C@H](c3ccc(Cl)c(Cl)c3)C2(Cl)Cl)cc(F)c1F [F1444, 5-((1R,3R)-2,2-Dichloro-3-(3,4-dichlorophenyl)cyclopropane-1-carboxamido)-N-(2,4-difluoro-3-(2,2,2-trifluoroacetamido)phenyl)-2,3-difluorobenzamide] | 50 to 100% | A (80–100) | 50 to 100%
8 | O=C(Nc1ccc(F)c(NC(=O)C(F)F)c1F)c1cccc(NC(=O)[C@H]2[C@H](c3ccc(Cl)c(Cl)c3)C2(Cl)Cl)c1 [F1447, 3-((1R,3R)-2,2-Dichloro-3-(3,4-dichlorophenyl)cyclopropane-1-carboxamido)-N-(3-(2,2-difluoroacetamido)-2,4-difluorophenyl)benzamide] | 50 to 100% | A (80–100) | 50 to 100%
9 | Cc1c(N)cccc1NC(=O)c1cc(NC(=O)[C@H]2[C@H](c3ccc(F)c(C(F)(F)F)c3)C2(Cl)Cl)ccc1Cl [F1448, N-(3-Amino-2-methylphenyl)-2-chloro-5-((1R,3R)-2,2-dichloro-3-(4-fluoro-3-(trifluoromethyl)phenyl)cyclopropane-1-carboxamido)benzamide] | 50 to 100% | A (80–100) | 50 to 100%
10 | O=C(Nc1ccc(F)c(NC(=O)C(F)(F)C(F)(F)C(F)(F)F)c1F)c1cc(NC(=O)[C@H]2[C@H](c3ccc(F)c(C(F)(F)F)c3)C2(Cl)Cl)ccc1Cl [F1450, 2-Chloro-5-((1R,3R)-2,2-dichloro-3-(4-fluoro-3-(trifluoromethyl)phenyl)cyclopropane-1-carboxamido)-N-(2,4-difluoro-3-(2,2,3,3,4,4,4-heptafluorobutanamido)phenyl)benzamide] | 50 to 100% | A (80–100) | 50 to 100%
11 | Cc1c(NC(=O)c2cc(NC(=O)[C@H]3[C@H](c4ccc(F)c(C(F)(F)F)c4)C3(Cl)Cl)ccc2Cl)cccc1NC(=O)C(F)(F)F [F1451, 2-Chloro-5-((1R,3R)-2,2-dichloro-3-(4-fluoro-3-(trifluoromethyl)phenyl)cyclopropane-1-carboxamido)-N-(2-methyl-3-(2,2,2-trifluoroacetamido)phenyl)benzamide] | 50 to 100% | A (80–100) | 50 to 100%
12 | CCN(C(=O)C(F)F)c1c(F)ccc(NC(=O)c2cc(NC(=O)[C@H]3[C@H](c4ccc(F)c(C(F)(F)F)c4)C3(Cl)Cl)ccc2Cl)c1F [F1452, 2-Chloro-5-((1R,3R)-2,2-dichloro-3-(4-fluoro-3-(trifluoromethyl)phenyl)cyclopropane-1-carboxamido)-N-(3-(N-ethyl-2,2-difluoroacetamido)-2,4-difluorophenyl)benzamide] | 50 to 100% | A (80–100) | 50 to 100%
13 | CC(=O)Nc1ccc(F)c(NC(=O)c2cc(NC(=O)[C@H]3[C@H](c4ccc(F)c(C(F)(F)F)c4)C3(Cl)Cl)ccc2Cl)c1F [F1454, N-(3-Acetamido-2,6-difluorophenyl)-2-chloro-5-((1R,3R)-2,2-dichloro-3-(4-fluoro-3-(trifluoromethyl)phenyl)cyclopropane-1-carboxamido)benzamide] | 50 to 100% | A (80–100) | 50 to 100%
14 | CN(C(=O)C(F)F)c1c(F)ccc(NC(=O)c2cc(NC(=O)[C@H]3[C@H](c4cc(Cl)c(Cl)c(Cl)c4)C3(Cl)Cl)ccc2Cl)c1F [F1461, 2-Chloro-5-((1R,3R)-2,2-dichloro-3-(3,4,5-trichlorophenyl)cyclopropane-1-carboxamido)-N-(3-(2,2-difluoro-N-methylacetamido)-2,4-difluorophenyl)benzamide] | 50 to 100% | A (80–100) | 50 to 100%
15 | O=C(Nc1ccccc1)c1c(Cl)ccc(NC(=O)[C@H]2[C@H](c3ccc(F)c(Cl)c3)C2(Cl)Cl)c1F [F1466, 6-Chloro-3-((1R,3R)-2,2-dichloro-3-(3-chloro-4-fluorophenyl)cyclopropane-1-carboxamido)-2-fluoro-N-phenylbenzamide] | 50 to 100% | A (80–100) | 50 to 100%

From patent US20250228239A1, “MOLECULES HAVING PESTICIDAL UTILITY, AND INTERMEDIATES, COMPOSITIONS, AND PROCESSES, RELATED THERETO” (priority 2024, published 2025)
